pIC50: −log10 of the molar value.
Legend:
recombinant human EGFR = biological target: T1, recombinant human EGFR (Homo sapiens, UniProt P00533); assay: EGF competition ELISA; format: binding
T1 construct: Fc; purchased R&D Systems
Method: Plates were blocked for 2 h with 2% BSA in PBS at RT. […] Plates were washed three times with PBS containing 0.05% Tween-20 (PBS-T) and then incubated with a 1:10,000 dilution of streptavidin-HRP (Thermo Fisher Scientific) diluted in assay buffer for 90 min at RT. Plates were washed an additional three times with PBS-T, and then incubated with TMB substrate (BioFx) for 15 min at RT. Reactions were stopped with stop solution (BioFx) and absorbance was read at 450 nm in a microplate reader (SpectraMax M5e, Molecular Devices).
Plates were blocked for 2 hours with 2% BSA in PBS at room temperature (RT). […] Peptides were reconstituted as 100% DMSO stocks, resulting in a final concentration of DMSO in the assay of 2% for all samples. Plates were washed three times with PBS containing 0.05% Tween-20 (PBS-T) and then incubated with a 1:10,000 dilution of streptavidin-HRP (Piece) diluted in assay buffer for 90 minutes at RT. Plates were washed an additional three times with PBS-T and then incubated with TMB substrate (BioFx) for 15 minutes at RT. The reaction was stopped with stop solution (BioFx) and absorbance was read at 450 nm in a microplate reader (SpectraMax M5e, Molecular Devices).

[1] = biological target: T2, Fc tagged recombinant human EGFR (rhEGFR-Fc) (Homo sapiens, UniProt P00533); format: binding; settings: Without EGF
T2 construct: purchased R&D Systems 344-ER-050
Method: (§1) Surface plasmon resonance (SPR) binding studies were carried out on a Biacore T200 instrument (GE Healthcare). Approximately 10,000 RU of anti-Fc antibody (GE Healthcare, Cat #BR100839) was immobilized via amine coupling on each of flow cells 1 and 2 of a CM5 dextran-coated gold sensor chip (GE Healthcare, Cat #BR100530). […] The contact time and resulting amount of rhEGFR-Fc capture was varied based on the nature of the analyte, namely whether it was a peptide or nanoparticle.
(§2) Peptide binding assays were carried out in 10 mM PBS buffer supplemented with 0.05% surfactant P20 and 5% DMSO by volume, at 25° C. Peptides were injected over the rhEGFR-Fc surface for 60 s, followed by dissociation (buffer injection) for 60 s and regeneration with a 10 s pulse of 3M MgCl2. A fresh rhEGFR-Fc surface was generated for each concentration of each peptide tested. Peptide binding data was analyzed by fitting to a 1:1 Langmuir kinetic model to obtain the on-rate (ka), off-rate (kd) and/or equilibrium binding constant (KD) of the interaction.

EGF bound EGFR = biological target: T3, EGF bound EGFR (Homo sapiens, UniProt P00533); assay: SPR peptide binding, rhEGF pre-injected; settings: With EGF
T3 construct: purchased R&D Systems 344-ER-050 (rhEGFR-Fc); 236-EG (rhEGF)
Method: as §1, §2

T3 sequence (P00533 with tags, fused parts or gaps limits assumed): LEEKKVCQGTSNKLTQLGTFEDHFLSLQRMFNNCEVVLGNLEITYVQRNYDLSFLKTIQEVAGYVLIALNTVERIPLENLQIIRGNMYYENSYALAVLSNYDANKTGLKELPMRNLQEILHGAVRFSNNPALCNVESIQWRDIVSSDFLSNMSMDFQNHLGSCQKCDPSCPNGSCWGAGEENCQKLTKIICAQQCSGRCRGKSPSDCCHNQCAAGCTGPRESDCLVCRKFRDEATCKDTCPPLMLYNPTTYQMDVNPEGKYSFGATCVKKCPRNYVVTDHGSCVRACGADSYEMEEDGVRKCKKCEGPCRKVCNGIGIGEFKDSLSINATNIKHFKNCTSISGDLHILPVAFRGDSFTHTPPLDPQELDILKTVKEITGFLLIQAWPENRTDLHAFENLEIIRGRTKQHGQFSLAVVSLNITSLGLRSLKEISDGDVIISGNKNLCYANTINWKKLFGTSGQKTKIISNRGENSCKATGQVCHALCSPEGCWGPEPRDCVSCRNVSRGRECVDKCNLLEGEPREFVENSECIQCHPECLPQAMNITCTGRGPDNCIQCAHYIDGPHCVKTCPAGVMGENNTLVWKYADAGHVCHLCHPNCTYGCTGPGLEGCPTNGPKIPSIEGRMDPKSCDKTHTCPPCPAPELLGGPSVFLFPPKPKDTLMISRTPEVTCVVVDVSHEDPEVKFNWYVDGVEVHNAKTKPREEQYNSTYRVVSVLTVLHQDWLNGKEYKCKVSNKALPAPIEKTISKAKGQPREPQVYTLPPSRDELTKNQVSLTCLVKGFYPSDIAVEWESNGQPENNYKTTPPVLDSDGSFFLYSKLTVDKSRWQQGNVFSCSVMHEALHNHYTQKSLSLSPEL
T3 sequence (P01133 971-1023 partner limits assumed): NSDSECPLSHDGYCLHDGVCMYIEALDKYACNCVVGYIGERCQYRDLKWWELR
T2 sequence (P00533 with tags, fused parts or gaps limits assumed): as the sequence (P00533 with tags, fused parts or gaps limits assumed) above
T1 sequence (P00533 with tags, fused parts or gaps limits assumed): as above

## CC[C@H](C)[C@H](NC(=O)[C@@H]1CSSC[C@H](NC(=O)[C@H](CCC(=O)O)NC(=O)[C@H](CO)NC(C)=O)C(=O)N[C@@H](Cc2ccccc2)C(=O)N2CCC[C@H]2C(=O)N[C@@H](C)C(=O)N[C@@H](C)C(=O)N2CCC[C@H]2C(=O)N[C@@H](CC(=O)O)C(=O)N[C@@H](Cc2c[nH]c3ccccc23)C(=O)N[C@@H](CC(C)C)C(=O)N[C@@H](CO)C(=O)N1)C(=O)N[C@@H](CC(C)C)C(=O)NCC(=O)NCC(=O)N[C@@H](CCCCNC(=O)CCOCCOCCOCCOCCOCCNC(=O)CCC(=O)N1Cc2ccccc2C#Cc2ccccc21)C(N)=O [Peptide P1-3]
Recombinant human EGFR
  pIC50: 5.39

## CC(=O)N[C@@H](CC(=O)O)C(=O)N1CCC[C@H]1C(=O)N[C@H]1CSSC[C@@H](C(=O)N[C@@H](CC(C)C)C(=O)N[C@@H](CCC(N)=O)C(=O)NCC(=O)NCC(=O)N[C@@H](CCCCNC(=O)CCOCCOCCOCCOCCOCCNC(=O)CCC(=O)N2Cc3ccccc3C#Cc3ccccc32)C(N)=O)NC(=O)[C@H](CCC(=O)O)NC(=O)[C@H](CCCNC(=N)N)NC(=O)CNC(=O)[C@H](Cc2c[nH]c3ccccc23)NC(=O)[C@H](C(C)C)NC(=O)[C@H](CCC(=O)O)NC(=O)[C@H](Cc2c[nH]c3ccccc23)NC(=O)[C@H]([C@@H](C)O)NC1=O [Peptide P2]
[1]
  kd: 9 ± 2 × 10^−3 s^−1
EGF bound EGFR
  kd: 7 ± 2 × 10^−3 s^−1
